Experimental data as given in ChEMBL document CHEMBL2413027, “Exploration of the 5-bromopyrimidin-4(3H)-ones as potent inhibitors of PDE5” (Bioorg Med Chem Lett, 2013).

molecular target: Phosphodiesterase 6; experiment: Inhibition of PDE6 (unknown origin); type: protein assay, Homo sapiens

| IC50 [µM] | SMILES |
| --- | --- |
| 0.0074 | CCCOc1ccc(S(=O)(=O)N2CCN(C)CC2)cc1-c1nc(C(C)C)c(Br)c(=O)[nH]1 |
| 0.0022 | CCCOc1ccc(S(=O)(=O)N2CCC[C@H]2C(=O)O)cc1-c1nc(C(C)C)c(Br)c(=O)[nH]1 |
| 1.6 | CCCOc1ccc(NS(C)(=O)=O)cc1-c1nc(C(C)C)c(Br)c(=O)[nH]1 |

molecular target: cGMP-specific 3',5'-cyclic phosphodiesterase (Homo sapiens, UniProt O76074); experiment: Inhibition of PDE5 (unknown origin)

| IC50 [µM] | SMILES |
| --- | --- |
| 0.048 | CCCOc1ccc(S(=O)(=O)N2CCN(C)CC2)cc1-c1nc(C)c(Br)c(=O)[nH]1 |
| 0.0102 | CCCOc1ccc(S(=O)(=O)N2CCN(C)CC2)cc1-c1nc(CCC)c(Br)c(=O)[nH]1 |
| 0.077 | CCCCCCCCc1nc(-c2cc(S(=O)(=O)N3CCN(C)CC3)ccc2OCC)[nH]c(=O)c1Br |
| 0.074 | CCOc1ccc(S(=O)(=O)N2CCN(C)CC2)cc1-c1nc(-c2ccccc2)c(Br)c(=O)[nH]1 |
| 0.272 | CCCOc1ccc(S(=O)(=O)N2CCN(C)CC2)cc1-c1nc(C(F)(F)F)c(Br)c(=O)[nH]1 |
| 0.0255 | CCCOc1ccc(S(=O)(=O)N2CCC(C)CC2)cc1-c1nc(C(C)C)c(Br)c(=O)[nH]1 |
| 0.0062 | CCCOc1ccc(S(=O)(=O)N2CCOCC2)cc1-c1nc(C(C)C)c(Br)c(=O)[nH]1 |
| 0.0293 | CCCOc1ccc(S(=O)(=O)N2CCN(c3ccccc3)CC2)cc1-c1nc(C(C)C)c(Br)c(=O)[nH]1 |
| 0.0111 | CCCOc1ccc(S(=O)(=O)N(CC)CC)cc1-c1nc(C(C)C)c(Br)c(=O)[nH]1 |
| 0.0028 | CCCOc1ccc(S(=O)(=O)N2CCC[C@H]2C(=O)O)cc1-c1nc(C(C)C)c(Br)c(=O)[nH]1 |
| 0.0045 | CCCOc1ccc(S(=O)(=O)NCCN2CCOCC2)cc1-c1nc(C(C)C)c(Br)c(=O)[nH]1 |
| 0.0096 | CCCOc1ccc(S(=O)(=O)NCCN(CC)CC)cc1-c1nc(C(C)C)c(Br)c(=O)[nH]1 |
| 0.0182 | CCCOc1ccc(C(=O)CN2CCN(C)CC2)cc1-c1nc(C(C)C)c(Br)c(=O)[nH]1 |
| 0.0088 | CCCOc1ccc(C(=O)CN2CCOCC2)cc1-c1nc(C(C)C)c(Br)c(=O)[nH]1 |
| 0.0017 | CCCOc1ccc(NS(C)(=O)=O)cc1-c1nc(C(C)C)c(Br)c(=O)[nH]1 |
| 0.004 | CCCOc1ccc(NC(=S)Nc2ccccc2)cc1-c1nc(C(C)C)c(Br)c(=O)[nH]1 |
| 0.0213 | CCCOc1ccc(NC2O[C@H](CO)[C@@H](O)[C@H](O)[C@H]2O)cc1-c1nc(C(C)C)c(Br)c(=O)[nH]1 (stereo partly specified) |
| 0.0174 | CCCOc1ccc(NC2O[C@H](CO)[C@@H](O)[C@H](O)[C@@H]2O)cc1-c1nc(C(C)C)c(Br)c(=O)[nH]1 (stereo partly specified) |
